# According to patent US9820970B2, “Method and agent for the treatment and prophylaxis of diseases caused by (+)RNA-containing viruses” (OBSSCHESTVO S OGRANICHENNOI OTVETSTVENNOSTIYU …, priority 2012, dated 2017):
# Where “and” joins values, the source holds several entries; their conditions need not be identical. Equal entries are not always repeated.
# What was measured:
# dengue fever virus = experiment: Experimental form of dengue fever, virus proliferation in the blood of white mice; assay type: in vivo; settings: for Level of virus accumulation in the blood, lg PFU/ml: infected intracerebrally
# Protocol: To determine antiviral activity, white mice were infected intracerebrally with a dengue fever virus. […] Infected animals were monitored for 21 days. Biological samples were evaluated on day 5 after infection.
# [1] = tested on: West Nile virus strain Eg101; experiment: Experimental form of West Nile Fever in white mice; settings: for Protective ratio, % / Average lifetime / Extension of the average lifetime, Δ: 5 mg/kg orally; for Protective ratio, %: 10LD50 subcutaneously; for Average lifetime / Extension of the average lifetime, Δ: 10LD50
# Protocol: In the experiment West Nile virus strain Eg101 was used. Infected animals were monitored for 21 days. Their death was controlled, and the average lifetime of the white mice were calculated in the experimental and control groups.
# The main criteria of the in vivo effectiveness were the values of protection of the laboratory animals against death and the average lifetime of the animals in a group.
# [2] = tested on: human rhinovirus strain (HRV 1B); experiment: Antiviral activity against human rhinovirus on an in vivo experimental model (virus in mouse lungs); set-up: species or system mice; settings: for Infectious virus titer in lungs, lg, TCID50: orally once daily for 3 days from 12 h after infection; for Suppression of the virus reproduction (Δ lg): orally once daily for 3 days, vs normal saline
# TBE virus strain Sof′ in = tested on: TBE virus strain Sof′ in; set-up: species or system white mice; settings: mouse, in vivo
# HCXV virus = experiment: Protective effectiveness against Coxsackie virus (HCXV) infection in mice; assay type: in vivo, white mice; settings: for Total mortality rate: 10LD50 intramuscularly
# [3] = Adverse side effects during long-term administration; settings: long-term administration in therapeutic doses or doses greater by an order of magnitude
# [4] = ribavirin, treatment scheme +24 h to +120 h
# [5] = 20 mg/kg, treatment scheme +24 h to +120 h
# [6] = 5 mg/kg orally, prevention scheme −96 h to −1 h
# [7] = 5 mg/kg orally, treatment scheme +24 h to +168 h
# [8] = 30/15 mg/kg, treatment scheme +24 h to +120 h
# [9] = 0.3 mg/kg orally once daily for 5 days from 24 h after infection
# [10] = 3 mg/kg orally once daily for 5 days from 24 h after infection
# [11] = 30 mg/kg orally once daily for 5 days from 24 h after infection
# [12] = prevention scheme −96 h to −1 h
# [13] = treatment scheme +24 h to +168 h
# [14] = 30 mg/kg, single administration −144 h before infection
smiles,measurement,setting,value
"NC(=O)c1ncn([C@@H]2O[C@H](CO)[C@@H](O)[C@H]2O)n1 [Ribavirin, ribavirin, reference compound]","Degree of inhibition of the virus accumulation, %",dengue fever virus; [4],83.4%
same,"Reduction in the level of virus accumulation, lg",dengue fever virus; [4],1.0 lg
same,"Level of virus accumulation in the blood, lg PFU/ml",dengue fever virus; [4],6.4 lg PFU/ml
same,"Protection against death, % of animals","[1]; 20 mg/kg, prevention scheme",50%
same,Average lifetime of animals in a group,[1]; [5],7.2 days
same,"Extension of the average lifetime of animals in a group, Δ",[1]; [5],0.2 days
same,"Protection against death, %",[1]; [5],10.0%
"O=C(O)CCCC(=O)NCCc1c[nH]cn1 [Glutaryl histamine, glutaryl histamine]","Infectious virus titer in lungs, lg, TCID50","[2]; 15 mg/ml, 48 hrs","2.8 ± 0.4 lg, TCID50"
same,"Infectious virus titer in lungs, lg, TCID50","[2]; 15 mg/ml, 72 hrs","2.1 ± 0.3 lg, TCID50"
same,Suppression of the virus reproduction (Δ lg),"[2]; 15 mg/ml, 48 hrs",1.3 Δ lg
same,Suppression of the virus reproduction (Δ lg),"[2]; 15 mg/ml, 72 hrs",1.1 Δ lg
same,"Infectious virus titer in lungs, lg, TCID50","[2]; 30 mg/ml, 48 hrs","1.5 ± 0.3 lg, TCID50"
same,"Infectious virus titer in lungs, lg, TCID50","[2]; 30 mg/ml, 72 hrs","1.0 ± 0.3 lg, TCID50"
same,Suppression of the virus reproduction (Δ lg),"[2]; 30 mg/ml, 48 hrs",2.6 Δ lg
same,Suppression of the virus reproduction (Δ lg),"[2]; 30 mg/ml, 72 hrs",2.2 Δ lg
same,Average lifetime,TBE virus strain Sof′ in,15.1 days and 15.4 days and 13.6 days and 10.5 days and 10.1 days
same,Extension of the average lifetime,TBE virus strain Sof′ in,3.1 days and 3.2 days
same,"Extension of the average lifetime, Δ",TBE virus strain Sof′ in,3.9 days and 2.4 days
same,"Protection against death, %",TBE virus strain Sof′ in,30.0% and 40.0%
same,"Protective ratio, %",TBE virus strain Sof′ in,40% and 35%
same,"Degree of inhibition of the virus accumulation, %",dengue fever virus; [6],95.5%
same,"Reduction in the level of virus accumulation, lg",dengue fever virus; [6],1.6 lg
same,"Level of virus accumulation in the blood, lg PFU/ml","dengue fever virus; 5 mg/kg orally, prevention scheme −96 h to −1 h, day 5 after infection",5.0 lg PFU/ml
same,"Degree of inhibition of the virus accumulation, %",dengue fever virus; [7],98.6%
same,"Reduction in the level of virus accumulation, lg",dengue fever virus; [7],1.8 lg
same,"Level of virus accumulation in the blood, lg PFU/ml","dengue fever virus; 5 mg/kg orally, treatment scheme +24 h to +168 h, day 5 after infection",4.8 lg PFU/ml
same,"Degree of inhibition of the virus accumulation, %",dengue fever virus; [8],99.6%
same,"Reduction in the level of virus accumulation, lg",dengue fever virus; [8],2.6 lg
same,"Level of virus accumulation in the blood, lg PFU/ml",dengue fever virus; [8],4.8 lg PFU/ml
same,"Average lifetime, (%)",HCXV virus; [9],24.4%
same,"Extension of the days lifetime, Δ, days",HCXV virus; [9],+14.4 days
same,"Protective ratio, % average",HCXV virus; [9],45.4%
same,Total mortality rate,HCXV virus; [9],42.9
same,"Average lifetime, (%)",HCXV virus; [10],21.7%
same,"Extension of the days lifetime, Δ, days",HCXV virus; [10],+11.7 days
same,"Protective ratio, % average",HCXV virus; [10],36.4%
same,Total mortality rate,HCXV virus; [10],50.0
same,"Average lifetime, (%)",HCXV virus; [11],19.6%
same,"Extension of the days lifetime, Δ, days",HCXV virus; [11],+9.6 days
same,"Protective ratio, % average",HCXV virus; [11],27.4%
same,Total mortality rate,HCXV virus; [11],57.1
same,Adverse side effects,[3],no adverse side effects have been registered
same,"Protective ratio, %","[1]; prevention scheme −96 h, −72 h, −48 h, −24 h, −1 h",42.9%
same,Average lifetime,[1]; [12],11.2 days
same,"Extension of the average lifetime, Δ",[1]; [12],4.2 days
same,Average lifetime,[1]; [13],9.8 days
same,"Extension of the average lifetime, Δ",[1]; [13],2.8 days
same,"Protective ratio, %",[1]; [13],37.8%
same,Average lifetime of animals in a group,[1]; [14],10.8 days
same,"Extension of the average lifetime of animals in a group, Δ",[1]; [14],3.7 days
same,"Protection against death, %",[1]; [14],40.0%
same,"Protection against death, %","[1]; 30/15 mg/kg, treatment scheme +24 h, +48 h, +72 h, +96 h, +120 h",50.0%
same,Average lifetime of animals in a group,[1]; [8],11.5 days
same,"Extension of the average lifetime of animals in a group, Δ",[1]; [8],4.5 days
same,"Extension of the average lifetime of animals in a group, Δ","[1]; 30/15 mg/kg, treatment scheme +24 h to +120 h, listed as glutaryl histamine",3.5 days
